Read-outs that look alike come from different tables or passages of the source.

Assay type in all cases: in vivo
In data set [1] the test system is leukocytes. Description: Total leukocyte, neutrophil and lymphocyte counts in blood of HCV-infected chimpanzees. The conditions noted are these: 10 μg/kg i.v. The text has this: (§1) Chimpanzees are the only test animals that can be persistently infected with hepatitis C viruses. Thus, 2 chimpanzees were selected as test animals for this experiment from the chimpanzee-dedicated facility (Kumamoto Primates Park, Sanwa Kagaku Kenkyusho Colo., Ltd.) where chimpanzees including hepatitis C virus carriers have been artificially bred and propagated over a long period of time. This experiment was examined and approved by the Experiment Review Board in advance in terms of ethics and test contents, and pain inflicted on chimpanzees was eliminated as much as possible during the experiment. Two chimpanzees employed in the experiment are hereafter referred to as Animal No. C33 (the duration of persistent infection with HCV (1a): 22 years) and Animal No. C54 (the duration of persistent infection with HCV (1b): 20 years), respectively.
(§2) After an acclimation period of approximately 1 month, KRN7000 was intravenously administered two times to animals at the rate of 10 μg/kg at the interval of 28 days (day 0 and day 28). […] The total leukocyte count was measured using an automated blood cell counter Sysmex K4500 (Sysmex Corporation). The leukocyte percentage was determined by coating whole blood onto a fat-free slide glass, immobilizing it thereon, staining with Diff-Quick (International Reagents Corp.), and microscopically examining 200 leukocytes. Neutrophil and lymphocyte counts were calculated by multiplying the obtained values with the total leukocyte count. The NKT cell percentage in the T cells was determined by: staining the whole blood with an anti-human TCR Vα24 antibody (Beckman Coulter), KRN7000 (α-GalCer)-bound human CD1d tetramer, and an anti-human CD3 antibody (Becton Dickinson Japan) that are labeled with different fluorescent dyes; lysing the stained whole blood with the FACS Lysing Solution (Becton Dickinson Japan); immobilizing thereof; and then determining the NKT cell ratio using the FACSCalibur (Becton Dickinson Japan). […]

In data set [2] the test system is NKT cells. Description: NKT cell percentage in the T cells by FACS in HCV-infected chimpanzees.
From the text: as §1, with “Two chimpanzees employed in the experiment are hereafter referred to as Animal No. C33 (the duration of persistent infection with HCV (1a): 22 years) and Animal No. C54 (the duration of persistent infection with HCV (1b): 20 years), respectively.” left out
After an acclimation period of approximately 1 month, KRN7000 was intravenously administered two times to animals at the rate of 10 μg/kg at the interval of 28 days (day 0 and day 28). […] The total leukocyte count was measured using an automated blood cell counter Sysmex K4500 (Sysmex Corporation). The leukocyte percentage was determined by coating whole blood onto a fat-free slide glass, immobilizing it thereon, staining with Diff-Quick (International Reagents Corp.), and microscopically examining 200 leukocytes. Neutrophil and lymphocyte counts were calculated by multiplying the obtained values with the total leukocyte count. […]

Data set [3] can be described thus: Serum KRN7000 levels by LC-MS/MS after intravenous administration to HCV-infected chimpanzees. To be noted: for Concentration in blood (serum KRN7000 level): before administration; for concentration at 15 min / concentration at 6 h: chimpanzee, serum, iv, 10 μg/kg, read-out: Concentration in blood (serum KRN7000 level); for concentration at 15 min: 15 minutes later; for concentration at 6 h: 6 hours later.
From the text: as §1
After an acclimation period of approximately 1 month, KRN7000 was intravenously administered two times to animals at the rate of 10 μg/kg at the interval of 28 days (day 0 and day 28). In order to obtain samples for verifying the responses of chimpanzees to KRN7000 and efficacy of KRN7000 on chronic HCV infections, blood drawing was carried out before and after each administration. The total leukocyte count was measured using an automated blood cell counter Sysmex K4500 (Sysmex Corporation). The leukocyte percentage was determined by coating whole blood onto a fat-free slide glass, immobilizing it thereon, staining with Diff-Quick (International Reagents Corp.), and microscopically examining 200 leukocytes. Neutrophil and lymphocyte counts were calculated by multiplying the obtained values with the total leukocyte count. The NKT cell percentage in the T cells was determined by: staining the whole blood with an anti-human TCR Vα24 antibody (Beckman Coulter), KRN7000 (α-GalCer)-bound human CD1d tetramer, and an anti-human CD3 antibody (Becton Dickinson Japan) that are labeled with different fluorescent dyes; lysing the stained whole blood with the FACS Lysing Solution (Becton Dickinson Japan); immobilizing thereof; and then determining the NKT cell ratio using the FACSCalibur (Becton Dickinson Japan). Cells that had responded to all of the anti-human TCR Vα24 antibody, the tetramer, and the anti-human CD3 antibody were determined to be the NKT cells of the chimpanzees. The activities of alanine aminotransferase (ALT), aspartate aminotransferase (AST), and lactate dehydrogenase (LDH) in serums were assayed using an automatic analyzer. The serum HCV-RNA levels were assayed by RT-PCR using the AMPLICOR® GT HCV monitor (Roche Diagnostics) and branched DNA (bDNA) probe assay using the Quantiplex HCV-RNA 2 (Bayer Corporation). The serum KRN7000 levels were assayed by liquid chromatography and tandem mass spectrometry (LC-MS/MS).

Data set [4] can be described thus: Serum ALT, AST and LDH activities in HCV-infected chimpanzees. To be noted: both chimpanzees, both stages; peaks 1 day or 3 days after administration, then returned to levels before administration.
From the text: as §1, §2

Data set [5] has as its system hepatitis C virus. Description: Serum HCV-RNA levels (RT-PCR, bDNA probe assay) in chimpanzees persistently infected with hepatitis C virus.
From the text: as §1, §2

[6] abbreviates: Animal C33, first administration (10 μg/kg i.v., day 0).
[7] abbreviates: Animal C33, second administration (10 μg/kg i.v., day 28).
[8] abbreviates: Animal C54, first administration (10 μg/kg i.v., day 0).
[9] abbreviates: Animal C54, second administration (10 μg/kg i.v., day 28).

As for `CCCCCCCCCCCCCCCCCCCCCCCCCC(=O)N[C@@H](CO[C@H]1O[C@H](CO)[C@H](O)[C@H](O)[C@H]1O)[C@H](O)[C@H](O)CCCCCCCCCCCCCC` [KRN7000, (2S,3S,4R)-1-(α-D-galactopyranosyloxy)-2-hexacosanoylamino-3,4-octadecanediol], in data set [1] (6 hours after the administration, some exceptions), the Lymphocyte count entry is reported as “decreased”. In addition, in data set [1] (both chimpanzees, both stages of administration, 6 hours later), the Neutrophil count result was “increased”. Also, the Total leukocyte count entry in data set [1] (in many cases, after administration) is “transiently increased”. Also, in data set [2] (Test Animal No. C54, after the administration), the “NKT cells, course after disappearance” value is “gradually showed a tendency to recover”. In addition, the “NKT cells (ratio of NKT cell count to T cell count)” value in data set [2] (day following both administrations, both chimpanzees, 10 μg/kg i.v.) is given as “not detected”. In data set [3] (setting [6]), the “Concentration in blood (serum KRN7000 level)” value (shortened to “Concentration in blood”) was less than 10 ng/mL, the concentration at 15 min was found to be 89 ng/mL and the concentration at 6 h came to 38 ng/mL. In data set [3] (setting [7]), the “Concentration in blood” value was less than 10 ng/mL, the concentration at 15 min was found to be 97 ng/mL and the concentration at 6 h came to 58 ng/mL. Further, in data set [3] (setting [8]), the “Concentration in blood” value was less than 10 ng/mL, the concentration at 15 min turned out to be 129 ng/mL and the concentration at 6 h was found to be 42 ng/mL. For the same molecule, in data set [3] (setting [9]), the “Concentration in blood” value is less than 10 ng/mL, the concentration at 15 min was 141 ng/mL and the concentration at 6 h amounted to 77 ng/mL. The “Time after administration at which maximum serum levels of KRN7000 were detected” value in data set [3] (both chimpanzees, both stages, 10 μg/kg i.v.) worked out at 15 min. For the same molecule, in data set [4], the “Serum ALT activity” value is “transiently and mildly elevated”; the “Serum AST activity” value is “transiently and mildly elevated”; the “Serum LDH activity” value was “transiently and mildly elevated”. The “Effect on chimpanzees infected with chronic HCV (overall conclusion)” value in data set [5] (10 μg/kg i.v. two times at interval of 28 days) is given as “anti-HCV effects”. In data set [5] (10 μg/kg i.v., day 0 and day 28), the “HCV-RNA levels, second administration (day 28) compared with initial administration (day 0)” value was “continuously decreased”. Besides, in data set [5] (both chimpanzees (HCV 1a, 1b), 1 day or 3 days after administration, both stages, 10 μg/kg i.v., RT-PCR or bDNA), the “Serum HCV-RNA levels” value was “apparent decreases”.
